# Reference: patent US20250250269A1, “HETEROCYCLIC GLP-1 AGONISTS” (Gasherbrum Bio, Inc., priority 2022, published 2025)
# Biological target: T1, GLP-1 Receptor (Homo sapiens, UniProt P43220)
# T1 construct: host or cells: HEK293/CRE-Luc (HEK293/GLP1R/CRE-LUC)
# Assay: GLP-1R agonist cAMP stimulation assay (HEK293/GLP1R/CRE-LUC cells, Cisbio cAMP dynamic 2 kit)
# Type: cell-based
# Conditions: HEK293/CRE-Luc cells stably expressing the GLP-1 Receptor, 30 min at 37° C.
# In short: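 HEK293 CRE-Luc cells stably expressing GLP-1R (1000 cells/well) treated with compounds in ½-log dilution for 30 min at 37 °C in DPBS with 0.5 mM IBMX and 0.1% BSA. cAMP quantified by HTRF (cAMP-d2/anti-cAMP cryptate, 1 h, room temperature), fluorescence read at 665 and 615 nm.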
# T1 sequence (P43220 24-463, species assumed): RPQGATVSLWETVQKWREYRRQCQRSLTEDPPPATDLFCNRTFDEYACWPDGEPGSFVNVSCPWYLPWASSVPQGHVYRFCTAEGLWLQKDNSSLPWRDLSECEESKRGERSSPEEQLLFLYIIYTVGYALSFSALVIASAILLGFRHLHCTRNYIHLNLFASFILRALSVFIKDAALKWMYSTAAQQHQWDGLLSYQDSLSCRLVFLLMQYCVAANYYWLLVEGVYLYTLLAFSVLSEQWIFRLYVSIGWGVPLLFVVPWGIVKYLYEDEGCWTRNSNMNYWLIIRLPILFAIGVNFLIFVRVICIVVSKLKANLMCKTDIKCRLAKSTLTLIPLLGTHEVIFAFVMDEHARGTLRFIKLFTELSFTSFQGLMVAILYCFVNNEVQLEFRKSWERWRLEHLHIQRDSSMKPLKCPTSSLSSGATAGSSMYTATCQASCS
structure (smiles),measurement,value
"Cc1ccc(C2(C)Oc3cccc(C4CCN(Cc5nc6cc(-c7nnc(C(F)(F)F)[nH]7)cnc6n5C[C@@H]5CCO5)CC4)c3O2)cn1 (stereo partly drawn) [Compound 56, 2-methyl-5-[2-methyl-4-{1-[(3-{[(2S)-oxetan-2-yl]methyl}-6-[5-(trifluoromethyl)-4H-1,2,4-triazol-3-yl]-3H-imidazo[4,5-b]pyridin-2-yl)methyl]piperidin-4-yl}-2H-1,3-benzodioxol-2-yl]pyridine]",EC50,< 1 nM
"O[C@@H]1CN(Cc2nc3cc(-c4nnc(C(F)(F)F)[nH]4)ncc3n2C[C@@H]2CCO2)CC[C@H]1c1cccc(OCc2ccc(Cl)cc2F)n1 [Compound 57, (3,4-trans)-4-{6-[(4-chloro-2-fluorophenyl)methoxy]pyridin-2-yl}-1-[(3-{[(2S)-oxetan-2-yl]methyl}-6-[5-(trifluoromethyl)-4H-1,2,4-triazol-3-yl]-3H-imidazo[4,5-c]pyridin-2-yl)methyl]piperidin-3-ol]",EC50,< 1 nM
